From ChEMBL document CHEMBL4483862, “Open-source discovery of chemical leads for next-generation chemoprotective antimalarials” (2018)

Test system: Plasmodium berghei
Assay: Luciferase/luciferin-expressing antifolate-resistant parasites were used to infect a culture of HepG2 cells that were pre-incubated with compounds. Infected hepatocytes emit light due to the luciferase reaction. Assay results are presented as the percent inhibition of light emission compared to control. […]
Type: functional
Conditions: sporozoite; for IC90: read-out: LUCIFERASE INFECTION ASSAY - IC90

SMILES | IC90 [µM] | further results
COc1ccc(CCN2C(=O)C=CC2=O)cc1OC | 5.29 | IC50 (FFLUC_HILL_SLOPE 0.51, FFLUC_R_SQUARED 0.0256, HEPG2TOX_HILL_SLOPE 14.8, HEPG2TOX_R_SQUARED 0.93, PBLUC_HILL_SLOPE 12.3, PBLUC_R_SQUARED 0.48, read-out: LUCIFERASE INFECTION ASSAY - IC50): 4.42 µM
Cc1cc(C)n(-c2ccc(S(N)(=O)=O)cc2)n1 | > 13.1 | IC50 (FFLUC_HILL_SLOPE 0.55, FFLUC_R_SQUARED 0.0304, read-out: LUCIFERASE INFECTION ASSAY - IC50): > 13.1 µM
c1csc(-c2cnc3sc(NCCc4ccncc4)nn23)c1 | > 10.1 | IC50 (FFLUC_HILL_SLOPE 0.665, FFLUC_R_SQUARED 0.0104, HEPG2TOX_HILL_SLOPE 4.1, HEPG2TOX_R_SQUARED 0.712, read-out: LUCIFERASE INFECTION ASSAY - IC50): > 10.1 µM
O=C(Nc1ccc(OC(F)(F)F)cc1)Nc1cncc(C(F)(F)F)c1 | 6.72 | IC50 (FFLUC_HILL_SLOPE 0.707, FFLUC_R_SQUARED 0.204, PBLUC_HILL_SLOPE 4.06, PBLUC_R_SQUARED 0.292, read-out: LUCIFERASE INFECTION ASSAY - IC50): 3.91 µM
Cc1ccnc(NC(=O)c2ccc(C3SCCCS3)cc2)c1 | 1.57 | IC50 (FFLUC_HILL_SLOPE 0.47, FFLUC_R_SQUARED 0.912, PBLUC_HILL_SLOPE 0.485, PBLUC_R_SQUARED 0.898, read-out: LUCIFERASE INFECTION ASSAY - IC50): 0.0169 µM
C(=N\Nc1ncnc2sc(-c3ccccc3)cc12)/c1sc(N2CCCCC2)nc1-c1cccs1 | 1.21 | IC50 (FFLUC_HILL_SLOPE 0.658, FFLUC_R_SQUARED 0.126, HEPG2TOX_HILL_SLOPE 2.14, HEPG2TOX_R_SQUARED 0.958, PBLUC_HILL_SLOPE 24.1, PBLUC_R_SQUARED 0.279, read-out: LUCIFERASE INFECTION ASSAY - IC50): 1.11 µM
CC(NS(=O)(=O)c1ccc(-n2ncc(Cl)c(Cl)c2=O)cc1)c1ccc2ccccc2c1 (stereo not given) | 3.82 | IC50 (FFLUC_HILL_SLOPE 0.605, FFLUC_R_SQUARED 0.525, HEPG2TOX_HILL_SLOPE 11.4, HEPG2TOX_R_SQUARED 0.983, PBLUC_HILL_SLOPE 12.9, PBLUC_R_SQUARED 0.58, read-out: LUCIFERASE INFECTION ASSAY - IC50): 3.22 µM
CCOC(=O)C1=C(C)N(c2ccc(Cl)cc2)C(=O)NC1c1c(F)cccc1Cl (stereo not given) | > 10 | IC50 (FFLUC_HILL_SLOPE 0.633, FFLUC_R_SQUARED 0.184, HEPG2TOX_HILL_SLOPE 1.11, HEPG2TOX_R_SQUARED 0.991, PBLUC_HILL_SLOPE 1.36, PBLUC_R_SQUARED 0.55, read-out: LUCIFERASE INFECTION ASSAY - IC50): 3.38 µM
CC12C/C(=C\c3ccccc3)C(O)CC1CCC1C2CCC2(C)C1CC[C@]2(C)O (stereo not given in full) | > 8.36 | IC50 (FFLUC_HILL_SLOPE 0.541, FFLUC_R_SQUARED 0.353, PBLUC_HILL_SLOPE 12.3, PBLUC_R_SQUARED 0.0329, read-out: LUCIFERASE INFECTION ASSAY - IC50): > 8.36 µM
NC(=O)NC(CC(=O)NCc1cccs1)c1cccc(Oc2ccccc2)c1 (stereo not given) | > 10 | IC50 (FFLUC_HILL_SLOPE 0.589, FFLUC_R_SQUARED 0.0522, PBLUC_HILL_SLOPE 12.1, PBLUC_R_SQUARED 0.469, read-out: LUCIFERASE INFECTION ASSAY - IC50): 9.25 µM
Clc1c(-c2c(-c3ccccc3)[nH]c3ccccc23)nc2ccccc2c1-c1ccccc1 | 8.61 | IC50 (FFLUC_HILL_SLOPE 0.689, FFLUC_R_SQUARED 0.515, HEPG2TOX_HILL_SLOPE 2.63, HEPG2TOX_R_SQUARED 0.531, PBLUC_HILL_SLOPE 2.99, PBLUC_R_SQUARED 0.588, read-out: LUCIFERASE INFECTION ASSAY - IC50): 4.13 µM
COc1cc(-c2cnc3cnc(-c4ccsc4)cn23)cc(OC)c1OC | 1.45 | IC50 (FFLUC_HILL_SLOPE 0.573, FFLUC_R_SQUARED 0.0155, HEPG2TOX_HILL_SLOPE 1.65, HEPG2TOX_R_SQUARED 0.878, PBLUC_HILL_SLOPE 3.42, PBLUC_R_SQUARED 0.766, read-out: LUCIFERASE INFECTION ASSAY - IC50): 0.761 µM
CCc1cccc(CC)c1N1C(=O)/C(=C\c2ccc(C(C)(C)C)cc2)N(C)C1=S | > 10 | IC50 (FFLUC_HILL_SLOPE 0.556, FFLUC_R_SQUARED 0.412, PBLUC_HILL_SLOPE 2.98, PBLUC_R_SQUARED 0.687, read-out: LUCIFERASE INFECTION ASSAY - IC50): 5.42 µM
O=C(Nc1nc(-c2ccccn2)cs1)C1CCCN(C(=O)c2ccc(Cl)cc2)C1 (stereo not given) | > 10 | IC50 (FFLUC_HILL_SLOPE 0.539, FFLUC_R_SQUARED 0.289, HEPG2TOX_HILL_SLOPE 0.153, HEPG2TOX_R_SQUARED 0.318, read-out: LUCIFERASE INFECTION ASSAY - IC50): > 10 µM
COC(=O)[C@@H](NC(=O)Nc1ccc(-c2nc3ccccc3s2)cc1)C(C)C | > 8.61 | IC50 (FFLUC_HILL_SLOPE 0.533, FFLUC_R_SQUARED 0.87, PBLUC_HILL_SLOPE 0.528, PBLUC_R_SQUARED 0.783, read-out: LUCIFERASE INFECTION ASSAY - IC50): 0.264 µM
COc1cccc(-c2cnc(N)c(-c3ccc(O)c(OC)c3)c2)c1 | 7.28 | IC50 (FFLUC_HILL_SLOPE 0.591, FFLUC_R_SQUARED 0.281, PBLUC_HILL_SLOPE 3.73, PBLUC_R_SQUARED 0.478, read-out: LUCIFERASE INFECTION ASSAY - IC50): 4.04 µM
CSc1sc(-c2n[nH]cc2Br)c2c1C(=O)CC(C)(C)C2 | > 8.89 | IC50 (FFLUC_HILL_SLOPE 0.501, FFLUC_R_SQUARED 0.129, read-out: LUCIFERASE INFECTION ASSAY - IC50): > 8.89 µM
Cc1c(C)n(CCCO)c2ncn3nc(-c4ccccc4O)nc3c12 | 0.862 | IC50 (FFLUC_HILL_SLOPE 0.508, FFLUC_R_SQUARED 0.752, HEPG2TOX_HILL_SLOPE 10.5, HEPG2TOX_R_SQUARED 0.849, PBLUC_HILL_SLOPE 1, PBLUC_R_SQUARED 0.894, read-out: LUCIFERASE INFECTION ASSAY - IC50): 0.0964 µM
Cc1ccc(NS(=O)(=O)c2ccc(C(=O)Nc3ncccc3O)cc2)cc1 | 0.462 | IC50 (FFLUC_HILL_SLOPE 0.564, FFLUC_R_SQUARED 0.118, HEPG2TOX_HILL_SLOPE 3.99, HEPG2TOX_R_SQUARED 0.784, PBLUC_HILL_SLOPE 9.26, PBLUC_R_SQUARED 0.767, read-out: LUCIFERASE INFECTION ASSAY - IC50): 0.364 µM
Cc1oc(-c2ccccc2)nc1C(=O)N(C)CC(=O)Nc1ccc(N2CCOCC2)cc1 | > 10 | IC50 (FFLUC_HILL_SLOPE 0.476, FFLUC_R_SQUARED 0.109, HEPG2TOX_HILL_SLOPE 11.6, HEPG2TOX_R_SQUARED 0.88, read-out: LUCIFERASE INFECTION ASSAY - IC50): > 10 µM
Cc1cnc(NC(=O)c2ccc(CN3CCCCC3)cc2)s1 | > 10 | IC50 (FFLUC_HILL_SLOPE 0.622, FFLUC_R_SQUARED 0.84, HEPG2TOX_HILL_SLOPE 8.37, HEPG2TOX_R_SQUARED 0.336, PBLUC_HILL_SLOPE 1, PBLUC_R_SQUARED 0.657, read-out: LUCIFERASE INFECTION ASSAY - IC50): 1.28 µM
Clc1ccccc1-c1cnc2sc(NCc3cccs3)nn12 | > 9.51 | IC50 (FFLUC_HILL_SLOPE 0.509, FFLUC_R_SQUARED 0.232, read-out: LUCIFERASE INFECTION ASSAY - IC50): > 9.51 µM
Cn1nc(-c2ccc(-c3ccnc(SCC(=O)c4ccccc4)n3)s2)cc1C(F)(F)F | > 7.17 | IC50 (FFLUC_HILL_SLOPE 0.544, FFLUC_R_SQUARED 0.175, read-out: LUCIFERASE INFECTION ASSAY - IC50): > 7.17 µM
COc1ccc(-c2cc(-c3ccc4ccccc4c3)n(C)c2-c2ccc(F)cc2)cc1 | > 8.1 | IC50 (FFLUC_HILL_SLOPE 0.642, FFLUC_R_SQUARED 0.523, PBLUC_HILL_SLOPE 1.6, PBLUC_R_SQUARED 0.413, read-out: LUCIFERASE INFECTION ASSAY - IC50): 2.69 µM
COc1ccc2c(C(=O)N/N=C/c3cc(Br)c4ccccc4c3O)cccc2c1 | 3.64 | IC50 (FFLUC_HILL_SLOPE 0.529, FFLUC_R_SQUARED 0.712, HEPG2TOX_HILL_SLOPE 1.8, HEPG2TOX_R_SQUARED 0.756, PBLUC_HILL_SLOPE 12.3, PBLUC_R_SQUARED 0.402, read-out: LUCIFERASE INFECTION ASSAY - IC50): 3.05 µM
O=C(Nc1cccc(S(=O)(=O)N2CCCCC2)c1)c1cn(-c2ccccc2C(F)(F)F)nn1 | > 10 | IC50 (FFLUC_HILL_SLOPE 0.647, FFLUC_R_SQUARED 0.258, read-out: LUCIFERASE INFECTION ASSAY - IC50): > 10 µM
C/N=c1\scc(-c2ccco2)n1/N=C/c1sccc1C | 1.19 | IC50 (FFLUC_HILL_SLOPE 0.471, FFLUC_R_SQUARED 0.601, PBLUC_HILL_SLOPE 1.29, PBLUC_R_SQUARED 0.771, read-out: LUCIFERASE INFECTION ASSAY - IC50): 0.216 µM
COc1cccc(C2c3sc(=O)[nH]c3SC3C4CCC(C4)C23)c1O (stereo not given) | > 9.13 | IC50 (FFLUC_HILL_SLOPE 0.571, FFLUC_R_SQUARED 0.432, read-out: LUCIFERASE INFECTION ASSAY - IC50): > 9.13 µM
CC(C)c1nc(N2CCN(C)CC2)c(C#N)c2c1CCCC2 | > 11.1 | IC50 (FFLUC_HILL_SLOPE 0.534, FFLUC_R_SQUARED 0.16, read-out: LUCIFERASE INFECTION ASSAY - IC50): > 11.1 µM
N#Cc1nn(-c2cccc(Cl)c2)c(=O)cc1Cl | 11.9 | IC50 (FFLUC_HILL_SLOPE 0.646, FFLUC_R_SQUARED 0.469, HEPG2TOX_HILL_SLOPE 5.31, HEPG2TOX_R_SQUARED 0.933, PBLUC_HILL_SLOPE 9.19, PBLUC_R_SQUARED 0.334, read-out: LUCIFERASE INFECTION ASSAY - IC50): 9.36 µM
